“Also recorded” adds a separate entry of the source. Like-named read-outs stand apart in the source and are kept apart here.
Assay: Solubility of anionic lipids in ethanol during preparation
Description: General method 1: The components of the lipid composition (including permanently anionic lipids, permanently cationic lipids, and/or neutral lipids, or combinations thereof) were dissolved in ethanol according to the specified molar ratio to prepare an ethanol lipid complex solution (with a total lipid concentration of 100 to 600 mM). The ethanol lipid complex solution was rapidly added to RNase-free water using the ethanol injection method. After stirring for 30 minutes, the resulting lipid composition solution was filtered through a polycarbonate membrane with a pore size of 100 nm to 400 nm.
General method 2: Permanently anionic lipids or compounds were dissolved in RNase-free water to obtain RNase-free water containing permanently anionic lipids. Permanently cationic lipids and neutral lipids were dissolved in ethanol according to the specified molar ratio to prepare an ethanol lipid complex solution (with a total lipid concentration of 100 to 600 mM). The ethanol lipid complex solution was rapidly added to the RNase-free water containing permanently anionic lipids using the ethanol injection method. After stirring for 30 minutes, the resulting lipid composition solution was filtered through a polycarbonate membrane with a pore size of 100 nm to 400 nm.
The molar ratio of permanently anionic lipids, permanently cationic lipid DOTMA, and neutral lipid DOPE in the different complexes was controlled at 1:2:1, and the particle size and PDI were measured.

| Compound | Notes: solubility of the anionic lipid in ethanol | Notes: solubility of the anionic lipid in ethanol (listed as farnesyl pyrophosphate) | Notes: solubility of the anionic lipid in ethanol (phosphate sodium salt) | Notes: solubility of the anionic lipid in ethanol (listed as pA (2′-OMe) mpG) |
| --- | --- | --- | --- | --- |
| CC(C)=CCC/C(C)=C/CC/C(C)=C/CO[P@@](=O)(O)OP(=O)(O)O (stereo in doubt) [Farnesyl pyrophosphate] | Insoluble in ethanol, | lower solubility in ethanol | – | – |
| CCCCCCCC/C=C\CCCCCCCC(=O)OC[C@H](COP(=O)([O-])OCCNC(C)=O)OC(=O)CCCCCCC/C=C\CCCCCCCC.[Na+] [ADOPE, 2-acetamidoethyl ((R)-2,3-bis(oleoyloxy)propyl) phosphate sodium salt] | – | – | good solubility in ethanol; also recorded: Soluble in ethanol, | – |
| CCCCCCCC/C=C\CCCCCCCC(=O)O [Oleic acid] | Soluble in ethanol, | – | – | – |
| COC1C(OP(=O)(O)OC[C@H]2O[C@@H](n3cnc4c(=O)[nH]c(N)nc43)C(O)C2O)[C@@H](COP(=O)(O)O)O[C@H]1n1cnc2c(N)ncnc21 (stereo partly drawn) [pA(2′-OMe)mpG, ((2R,3S,4S,5R)-3-(((((2R,3R,4S,5R)-5-(2-amino-6-oxo-1,6-dihydro-9H-purin-9-yl)-3,4-dihydroxytetrahydrofuran-2-yl)methoxy) (hydroxy)phosphoryl)oxy)-5-(6-amino-9H-purin-9-yl)-4-methoxytetrahydrofuran-2-yl) methyl dihydrogen phosphate] | Insoluble in ethanol, | – | – | lower solubility in ethanol |
